Reference: ChEMBL document CHEMBL3124744, “4-Functionalized 1,3-diarylpyrazoles bearing benzenesulfonamide moiety as selective potent inhibitors of the tumor associated carbonic anhydrase isoforms IX and XII” (Eur J Med Chem, 2014)
pKi: −log10 of the molar value.

biological target: Carbonic anhydrase 9 (Homo sapiens, UniProt Q16790)
Description: Inhibition of human carbonic anhydrase 9-mediated CO2 hydration preincubated for 10 mins by stopped-flow assay

Row | SMILES | pKi
1 | NC(=O)c1cn(-c2ccc(S(N)(=O)=O)cc2)nc1-c1ccc(F)cc1 | 8.64
2 | NC(=O)c1cn(-c2ccc(S(N)(=O)=O)cc2)nc1-c1ccc(Cl)cc1 | 8.28
3 | COC(=O)c1cn(-c2ccc(S(N)(=O)=O)cc2)nc1-c1ccc([N+](=O)[O-])cc1 | 8.28
4 | COC(=O)c1cn(-c2ccc(S(N)(=O)=O)cc2)nc1-c1ccc(Cl)cc1 | 7.77
5 | NC(=O)c1cn(-c2ccc(S(N)(=O)=O)cc2)nc1-c1cccs1 | 8.68
6 | NC(=O)c1cn(-c2ccc(S(N)(=O)=O)cc2)nc1-c1ccc([N+](=O)[O-])cc1 | 7.31

biological target: Carbonic anhydrase 12 (Homo sapiens, UniProt O43570)
Sequence (O43570 whole entry): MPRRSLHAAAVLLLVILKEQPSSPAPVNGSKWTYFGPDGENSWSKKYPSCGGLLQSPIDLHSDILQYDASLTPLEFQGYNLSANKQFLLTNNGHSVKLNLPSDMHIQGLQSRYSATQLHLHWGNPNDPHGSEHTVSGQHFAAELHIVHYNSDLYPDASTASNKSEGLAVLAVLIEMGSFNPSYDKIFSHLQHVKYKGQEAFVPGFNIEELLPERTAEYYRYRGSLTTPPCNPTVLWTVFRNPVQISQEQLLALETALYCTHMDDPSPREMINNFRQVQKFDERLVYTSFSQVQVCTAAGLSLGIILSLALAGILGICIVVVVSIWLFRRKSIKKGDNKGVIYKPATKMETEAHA
Description: Inhibition of human carbonic anhydrase 12-mediated CO2 hydration preincubated for 10 mins by stopped-flow assay

Row | SMILES | pKi
7 | COC(=O)c1cn(-c2ccc(S(N)(=O)=O)cc2)nc1-c1ccc(Br)cc1 | 7.36
